{
  "source": "paper PMC9589981",
  "about": "“High-Resolution Epitope Mapping and Affinity Binding Analysis Comparing a New Anti-Human LAG3 Rabbit Antibody Clone to the Commonly Used Mouse 17B4 Clone” (Antibodies, 2022)",
  "tested_on": "mouse 17B4 antibody (binding to LAG3 from HH cell lysate)",
  "test": "ACE (automated capillary electrophoresis) peptide inhibition assay, 17B4",
  "conditions": "result in words, peptide at 5000 nM and 500 nM",
  "method": "For each assay run, HH cell lysate was mixed with 0.1× WES sample buffer reagent, and reconstituted WES 5× Fluorescent Mix reagent followed by denaturation at 95 °C for 3 min and then held on ice followed until use. Denatured sample was added to each of the designated wells of the separation module sampling plate. Dilutions of the stock rabbit SP464 and mouse 17B4 monoclonal antibodies were made to the desired concentrations using the WES detection module Antibody Dilution Buffer 2 reagent. Diluted antibody solutions were added to the designated wells of the separation module sampling plate. The remaining WES assay reagents were finally added to the plate and then processed in the WES instrument using the default running and detection parameters.\nHH cell lysate samples were prepared and used as above for antibody titration assays. Rabbit SP464 and mouse 17B4 antibodies were diluted to 4 µg/mL in the WES detection module Antibody Dilution Buffer 2 reagent. The antibody solutions were then diluted 1:1 (vol/vol) with varying concentrations of peptide, or diluent as a no peptide control, for 1 h at RT, and 10 µL of each antibody/peptide solution was added to the designated wells of the separation module sampling plate. Samples were run in duplicates or triplicates. Plates were then processed in the WES instrument using default running and detection parameters.",
  "data": [
    {"sequence": "PAAAPGHPLA [central ten amino acid fragment within the N-terminal 15 amino acids]", "values": [
      {"measurement": "inhibition of 17B4 binding by immunogen fragment (ACE)", "result": "inhibited binding"},
      {"measurement": "inhibition of 17B4 binding by immunogen fragment (ACE)", "setting": "listed as center sub-domain fragment", "result": "complete inhibition"}
    ]}
  ]
}
